Test results from patent US7776883B2, “Quinolin-4-ones as inhibitors of retroviral integrase for the treatment of HIV, AIDS and AIDS related complex (ARC)” (The United States of America as represented by the …, priority 2004, dated 2010).

Assays:
HIV-1, IIIB strain = assay: Inhibition of HIV-1-induced cytopathicity in acutely infected MT-4 cells (MTT method); type: cell-based; conditions: Human immunodeficiency virus 1, IIIB, MT4, 96 h, 4-day incubation, read-out: 50% effective concentration value (EC50)
Experimental: Several of the compounds disclosed herein were tested for their ability to inhibit HIV cell multiplication. The compounds were solubilized in dimethyl sulfoxide at 200 mM and then diluted into culture medium. MT-4, C8166, H9/IIIB cells were grown at 37° C. in a 5% CO2 atmosphere in RPMI 1640 medium, supplemented with 10% fetal calf serum (FCS), 100 IU/mL penicillin G and 100 μg/mL streptomycin. Cell cultures were checked periodically for the absence of mycoplasma contamination with a MycoTect Kit (Gibco). Human immunodeficiency viruses type-1 (HIV-1, IIIB strain) were obtained from supernatants of persistently infected H9/IIIB. HIV-1 stock solutions had titres of 4.5×10^6 50% cell culture infectious dose (CCID50)/mL. Titration of HIV-1 was performed in C8166 cells by the standard limiting dilution method (dilution 1:2, four replica wells/dilution) in 96-well plates. The infectious virus titer was determined by light microscope scoring of cytopathicity after 4 days of incubation and the virus titers were expressed as CCID50/mL.
Activity of the compounds against HIV-1 multiplication in acutely infected cells was based on the inhibition of virus-induced cytopathicity in MT-4 cells. Briefly, 50 μL of culture medium containing 1×10^4 cells were added to each well of flat-bottom microtiter trays containing 50 μL of culture medium with or without various concentrations of the test compounds. Then 20 μL of an HIV-1 suspension containing 100 CCID50 was added. After a 4-day incubation at 37° C., the number of viable cells was determined by the 3-(4,5-dimethylthiazol-[…])-2,5-diphenyltetrazolium bromide (MTT) method (Pauwels, R.; Balzarini, J.; Baba, M.; Snoeck, R.; Schols, D.; Herdewijn, P.; Desmyster, J.; De Clercq, E. J. Virol. Methods 1988, 20, 309-321). Cytotoxicity of the compounds was evaluated in parallel with their antiviral activity, and was based on the viability of mock-infected cells, as monitored by the MTT method.

Compound | EC50 (HIV-1, IIIB strain) [µM] | melting point [°C]
O=C(O)C(=O)CC(=O)c1cn(Cc2ccc(F)cc2)c2ccccc2c1=O [RDS1625, 4-[1-(4-fluorophenyl)methyl-1,4-dihydro-4-oxoquinolin-3-yl]-2,4-dioxobutanoic acid] | 40 | 207 to 209
CCOC(=O)C(=O)CC(=O)c1cn(Cc2ccc(F)cc2)c2ccccc2c1=O [RDS1624, 4-[1-(4-fluorophenyl)methyl-1,4-dihydro-4-oxoquinolin-3-yl]-2,4-dioxobutanoic acid ethyl ester] | 3.5 | 
CCOC(=O)C(=O)CC(=O)c1cn(Cc2ccc(F)cc2)c2ccc(Cl)cc2c1=O [RDS1755] | 5 | 
